The experiment deals with T1, IGF-1R Ba/F3 (Homo sapiens, UniProt P08069).
T1 construct: fused on or other part: TEL- (or BCR-) IGF-1R in Ba/F3: the kinase part holds the site
As to the kind of experiment: Ba/F3 Cell Viability Inhibition Assay (IGF-1R Ba/F3). It counts as cell-based, murine. The following applies: Tel-TK transformed Ba/F3 cells, 48 hours, Britelite luminescence. In outline:
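IL-3-independent murine Ba/F3 cells transformed with a TEL/BCR-fused IGF-1R kinase were seeded at 3750 cells/well and exposed to serially diluted compound for 48 h at 37 °C. Viability was read by Britelite luminescence. IC50 is the concentration giving 50% of DMSO-control viability, from a logistic fit.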

T1 sequence (P08069 999-1274 limits assumed): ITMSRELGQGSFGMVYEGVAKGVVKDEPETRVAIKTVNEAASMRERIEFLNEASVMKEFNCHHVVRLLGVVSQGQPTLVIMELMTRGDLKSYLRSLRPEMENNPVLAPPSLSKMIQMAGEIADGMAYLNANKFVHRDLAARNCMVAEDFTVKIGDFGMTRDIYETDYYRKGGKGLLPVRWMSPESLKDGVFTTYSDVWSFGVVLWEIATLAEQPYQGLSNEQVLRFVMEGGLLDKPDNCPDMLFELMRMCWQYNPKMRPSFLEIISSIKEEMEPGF

What is called IC50 is the concentration needed to halve the response being measured. A lower IC50 goes with higher potency. `Cc1cc(Nc2nc(Nc3cc(C)c(C4CCN(S(=O)(=O)CCCN5C[C@@H](O)[C@H](O)C5)CC4)cc3C)ncc2Cl)n[nH]1` [Compound 196, (3R,4R)-1-(3-(4-(4-(5-chloro-4-(5-methyl-1H-pyrazol-3-ylamino)pyrimidin-2-ylamino)-2,5-dimethylphenyl)piperidin-1-ylsulfonyl)propyl)pyrrolidine-3,4-diol] yielded an IC50 of 370 nM.

The molecule `CNC(=O)C(C)N1CCC(c2cc(F)c(Nc3ncc(Cl)c(Nc4cc(C)[nH]n4)n3)cc2C)CC1` (stereo not shown) [Compound 50, 2-(4-(4-(5-chloro-4-(5-methyl-1H-pyrazol-3-ylamino)pyrimidin-2-ylamino)-5-fluoro-2-methylphenyl)piperidin-1-yl)-N-methylpropanamide] showed an IC50 of 22 nM.

In turn, `Cc1cc(Nc2nc(Nc3cc(C)c(C4CCN(C5CC5)CC4)cc3F)ncc2Cl)n[nH]1` [Compound 210, 5-chloro-N^2-(4-(1-cyclopropylpiperidin-4-yl)-2-fluoro-5-methylphenyl)-N^4-(5-methyl-1H-pyrazol-3-yl)pyrimidine-2,4-diamine] had an IC50 of 32 nM.

Molecule `Cc1cc(Nc2nc(Nc3cc(C)c(C4CCN(C(=O)C5CN(C)C5)CC4)cc3F)ncc2Cl)n[nH]1` [Compound 117, (4-(4-(5-chloro-4-(5-methyl-1H-pyrazol-3-ylamino)pyrimidin-2-ylamino)-5-fluoro-2-methylphenyl)piperidin-1-yl)(1-methylazetidin-3-yl)methanone] had an IC50 of 99 nM.

`Cc1cc(Nc2nc(Nc3cc(C)c(C4CCN(Cc5ccccn5)CC4)cc3F)ncc2Cl)n[nH]1` [Compound 281, 5-chloro-N2-(2-fluoro-5-methyl-4-(1-(pyridin-2-ylmethyl)piperidin-4-yl)phenyl)-N4-(5-methyl-1H-pyrazol-3-yl)pyrimidine-2,4-diamine] returned an IC50 of 87 nM.

For `Cc1cc(Nc2nc(Nc3cc(C)c(C4CCN(C(=O)N(C)C)CC4)cc3C)ncc2Cl)n[nH]1` [Compound 70, 4-(4-(5-chloro-4-(5-methyl-1H-pyrazol-3-ylamino)pyrimidin-2-ylamino)-2,5-dimethylphenyl)-N,N-dimethylpiperidine-1-carboxamide], the IC50 amounted to 6 nM.

The molecule `Cc1cc(Nc2nc(Nc3cc(C)c(C4CCN(Cc5ccncc5)CC4)cc3C)ncc2Cl)n[nH]1` [Compound 309, 5-chloro-N2-(2,5-dimethyl-4-(1-(pyridin-4-ylmethyl)piperidin-4-yl)phenyl)-N4-(5-methyl-1H-pyrazol-3-yl)pyrimidine-2,4-diamine] returned a half-maximal inhibitory concentration (IC50) of 8 nM.

The molecule `Cc1cc(Nc2nc(Nc3cc(C)c(C4CCS(=O)(=O)C4)cc3C)ncc2Cl)n[nH]1` (stereo not shown) [Compound 154, 5-Chloro-N^2-[4-(1,1-dioxo-tetrahydro-1λ^6-thiophen-3-yl)-2,5-dimethyl-phenyl]-N^4-(5-methyl-1H-pyrazol-3-yl)-pyrimidine-2,4-diamine] registered an IC50 of 12 nM.

The molecule `Cc1cc(Nc2nc(Nc3cc(C)c(C4CCN(C(=O)OCCN(C)C)CC4)cc3F)ncc2Cl)n[nH]1` [Compound 108, (dimethylamino)ethyl 4-(4-(5-chloro-4-(5-methyl-1H-pyrazol-3-ylamino)pyrimidin-2-ylamino)-5-fluoro-2-methylphenyl)piperidine-1-carboxylate] came in with a 50% inhibitory concentration (IC50) of 53 nM.

With `Cc1cc(Nc2nc(Nc3cc(C)c(C4CCN(Cc5cncnc5)CC4)cc3C)ncc2Cl)n[nH]1` [Compound 317, 5-chloro-N2-(2,5-dimethyl-4-(1-(pyrimidin-5-ylmethyl)piperidin-4-yl)phenyl)-N4-(5-methyl-1H-pyrazol-3-yl)pyrimidine-2,4-diamine], half-maximal inhibition (IC50) was put at 4 nM.

The molecule `Cc1cc(Nc2nc(Nc3cc(C(F)(F)F)c(N4CCN(C)CC4)cc3F)ncc2Cl)n[nH]1` [Compound 157, 5-chloro-N^2-(2-fluoro-4-(4-methylpiperazin-1-yl)-5-(trifluoromethyl)phenyl)-N^4-(5-methyl-1H-pyrazol-3-yl)pyrimidine-2,4-diamine] gave an IC50 of 75 nM.

On to `CCN1CCC(c2cc(C)c(Nc3ncc(Cl)c(Nc4cc(C)[nH]n4)n3)cc2C)CC1` [Compound 211, 5-chloro-N2-(4-(1-ethylpiperidin-4-yl)-2,5-dimethylphenyl)-N4-(5-methyl-1H-pyrazol-3-yl)pyrimidine-2,4-diamine], for which the midpoint of inhibition, the IC50, lay at 9 nM.

In the case of `Cc1cc(Nc2nc(Nc3cc(C)c(C4CCN(Cc5c(C)noc5C)CC4)cc3C)ncc2Cl)n[nH]1` [Compound 20, 5-chloro-N2-(4-(1-((3,5-dimethylisoxazol-4-yl)methyl)piperidin-4-yl)-2,5-dimethylphenyl)-N4-(5-methyl-1H-pyrazol-3-yl)pyrimidine-2,4-diamine], 11 nM corresponded to half-maximal inhibition (IC50).

`Cc1cc(Nc2nc(Nc3cc(C)c(C4CCN(Cc5noc(C(C)(C)C)n5)CC4)cc3C)ncc2Cl)n[nH]1` [Compound 266, N2-(4-(1-((5-tert-butyl-1,2,4-oxadiazol-3-yl)methyl)piperidin-4-yl)-2,5-dimethylphenyl)-5-chloro-N4-(5-methyl-1H-pyrazol-3-yl)pyrimidine-2,4-diamine] displayed an IC50 of 25 nM.

In turn, `Cc1cc(Nc2nc(Nc3cc(C(F)(F)F)c(C4CCN(C)CC4)cc3C)ncc2Cl)n[nH]1` [Compound 218, 5-chloro-N4-(5-methyl-1H-pyrazol-3-yl)-N2-(2-methyl-4-(1-methylpiperidin-4-yl)-5-(trifluoromethyl)phenyl)pyrimidine-2,4-diamine] gave an IC50 of 26 nM.

`Cc1cc(Nc2nc(Nc3cc(C)c(C4CCCCN4C(=O)C4(O)CC4)cc3C)ncc2Cl)n[nH]1` (stereo not shown) [Compound 193, (2-(4-(5-chloro-4-(5-methyl-1H-pyrazol-3-ylamino)pyrimidin-2-ylamino)-2,5-dimethylphenyl)piperidin-1-yl)(1-hydroxycyclopropyl)methanone] had an IC50 of 76 nM.

In turn, `CNC(=O)CN1CCC(c2cc(C)c(Nc3ncc(Cl)c(Nc4cc(C)[nH]n4)n3)cc2OC)CC1` [Compound 46, 2-(4-(4-(5-chloro-4-(5-methyl-1H-pyrazol-3-ylamino)pyrimidin-2-ylamino)-2-methoxy-5-methylphenyl)piperidin-1-yl)-N-methylacetamide] came in with an IC50 of 13 nM.

Take `CCN(CC)CC(=O)N1CCC(c2cc(F)c(Nc3ncc(Cl)c(Nc4cc(C)[nH]n4)n3)cc2C)CC1` [Compound 81, 1-(4-(4-(5-chloro-4-(5-methyl-1H-pyrazol-3-ylamino)pyrimidin-2-ylamino)-5-fluoro-2-methylphenyl)piperidin-1-yl)-2-(diethylamino)ethanone]: half-maximal inhibition (IC50) required 30 nM.

Molecule `Cc1cc(Nc2nc(Nc3cc(C(F)(F)F)c(C4CCNCC4)cc3C)ncc2Cl)n[nH]1` [Compound 254, 5-chloro-N4-(5-methyl-1H-pyrazol-3-yl)-N2-(2-methyl-4-(piperidin-4-yl)-5-(trifluoromethyl)phenyl)pyrimidine-2,4-diamine] showed an IC50 of 70 nM.

With `Cc1cc(Nc2nc(Nc3cc(C)c(C4CCN(CCS(N)(=O)=O)CC4)cc3F)ncc2Cl)n[nH]1` [Compound 59, 2-(4-(4-(5-chloro-4-(5-methyl-1H-pyrazol-3-ylamino)pyrimidin-2-ylamino)-5-fluoro-2-methylphenyl)piperidin-1-yl)ethanesulfonamide], the IC50 was determined as 38 nM.

`Cc1cc(Nc2nc(Nc3cc(C)c(C4CCN([C@@H](C)C(N)=O)CC4)cc3F)ncc2Cl)n[nH]1` [Compound 163] returned an IC50 of 56 nM.

`CCNC(=O)N1CCC(c2cc(C)c(Nc3ncc(Cl)c(Nc4cc(C)[nH]n4)n3)cc2C)CC1` [Compound 71, 4-(4-(5-chloro-4-(5-methyl-1H-pyrazol-3-ylamino)pyrimidin-2-ylamino)-2,5-dimethylphenyl)-N-ethylpiperidine-1-carboxamide] showed a half-inhibitory concentration (IC50) of 2 nM.

Consider `Cc1cc(Nc2nc(Nc3cc(C)c(C4CCN(C(=O)CN(C)C)CC4)cc3C)ncc2Cl)n[nH]1` [Compound 75, 1-(4-(4-(5-chloro-4-(5-methyl-1H-pyrazol-3-ylamino)pyrimidin-2-ylamino)-2,5-dimethylphenyl)piperidin-1-yl)-2-(dimethylamino)ethanone], for which it took 11 nM to reach half-maximal inhibition (IC50).

Take `Cc1cc(Nc2nc(Nc3cc(C)c(C4CCNCC4)cc3F)ncc2Cl)n[nH]1` [Compound 2, 5-chloro-N2-(2-fluoro-5-methyl-4-(piperidin-4-yl)phenyl)-N4-(5-methyl-1H-pyrazol-3-yl)pyrimidine-2,4-diamine]: it took 50 nM to reach half-maximal inhibition (IC50).

`Cc1cc(Nc2nc(Nc3cc(C)c(C4CCN(CC(N)=O)C(C)C4)cc3F)ncc2Cl)n[nH]1` (stereo not shown) [Compound 274, 2-(4-(4-(5-chloro-4-(5-methyl-1H-pyrazol-3-ylamino)pyrimidin-2-ylamino)-5-fluoro-2-methylphenyl)-2-methylpiperidin-1-yl)acetamide] registered an IC50 of 6 nM.

The molecule `Cc1cc(Nc2nc(Nc3cc(C)c(C4CCN(CC5CC5(F)F)CC4)cc3F)ncc2C(F)(F)F)n[nH]1` (stereo not shown) [Compound 251, N^2-(4-(1-((2,2-difluorocyclopropyl)methyl)piperidin-4-yl)-2-fluoro-5-methylphenyl)-N^4-(5-methyl-1H-pyrazol-3-yl)-5-(trifluoromethyl)pyrimidine-2,4-diamine] gave an IC50 of 52 nM.

As to `Cc1cc(Nc2nc(Nc3cc(C)c(C4CCN(C5CS(=O)(=O)C5)CC4)cc3F)ncc2Cl)n[nH]1` [Compound 148, 5-chloro-N^2-(2-fluoro-5-methyl-4-(1-(1,1-dioxido-3-thietanyl)piperidin-4-yl)phenyl)-N^4-(5-methyl-1H-pyrazol-3-yl)pyrimidine-2,4-diamine], 18 nM corresponded to half-maximal inhibition (IC50).

`CNC(=O)CN1CCC(c2cc(C)c(Nc3ncc(Cl)c(Nc4cc(C)[nH]n4)n3)cc2Cl)CC1` [Compound 45, 2-(4-(2-chloro-4-(5-chloro-4-(5-methyl-1H-pyrazol-3-ylamino)pyrimidin-2-ylamino)-5-methylphenyl)piperidin-1-yl)-N-methylacetamide]: the IC50 was 18 nM.
